Experimental data: US20240150396A1 (The Texas A&M University System, priority 2021, published 2024)
Like-named read-outs stand apart in the source and are kept apart here.

Columns and labels:
[1] = Thiolation of inhibitors with glutathione, LCMS; type: physicochemical; settings: for Rate of Thiolation, k: 1 mM glutathione, 0.5 mM compound, Tris pH 8.0, 10% DMSO, room temperature
Description: Samples were analyzed by HPLC-MS (as described above) by injecting 0.01 mL aliquots onto a Luna […] C18(2) 100 Å, 4.6 mm, 50 mm column (Phenomenex) using the HPLC method described in the chemistry section at 0-6 h time points. […] Integration of the chromatographic peaks of the inhibitors and their GSH adducts at each time point was used to determine the rate of GSH adduct formation.

[2] = molecular target: human cathepsin L (Homo sapiens (Human), UniProt P07711); assay: Human cathepsin L inhibition, Z-FR-AMC assay; type: biochemical; settings: for Ki: pH 5.5, 25° C.
Chain of human cathepsin L (P07711 114-333): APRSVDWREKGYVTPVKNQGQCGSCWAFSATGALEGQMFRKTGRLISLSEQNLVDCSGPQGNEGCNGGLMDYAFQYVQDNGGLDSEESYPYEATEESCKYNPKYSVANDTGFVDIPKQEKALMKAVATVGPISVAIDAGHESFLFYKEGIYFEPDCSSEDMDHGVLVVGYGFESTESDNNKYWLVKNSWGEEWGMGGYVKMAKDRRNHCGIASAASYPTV
Method in brief: (§1)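 Recombinant human enzymes were assayed at 25°C in sodium acetate pH 5.5 with 1 mM CHAPS, 1 mM EDTA, 5 mM DTT and 10% DMSO final, using the fluorogenic substrate Z-FR-AMC. AMC release (ex 360/em 460 nm) was followed over 30–60 min and converted to rates (μM/s) via an AMC standard curve.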

[3] = molecular target: human cathepsin B (Homo sapiens (Human), UniProt P07858); assay: Human cathepsin B inhibition, Z-FR-AMC assay; type: biochemical; settings: pH 5.5, 25° C.
Method in brief: as §1

[4] = test system: human dermal fibroblasts; assay: Human cell toxicity, resazurin viability; type: cell-based
Method in brief: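 Primary human dermal fibroblasts, 2400 cells/well, exposed in duplicate to inhibitors at final 0.001-0.1 mM in 1% DMSO (1% DMSO control) for 48 h at 37 °C. Resazurin then added and viability read by fluorescence (544/590 nm) after further 24 h.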

[5] = molecular target: cruzain (Trypanosoma cruzi, UniProt P25779); assay: biochemical
Chain of cruzain (P25779 123-467 limits assumed): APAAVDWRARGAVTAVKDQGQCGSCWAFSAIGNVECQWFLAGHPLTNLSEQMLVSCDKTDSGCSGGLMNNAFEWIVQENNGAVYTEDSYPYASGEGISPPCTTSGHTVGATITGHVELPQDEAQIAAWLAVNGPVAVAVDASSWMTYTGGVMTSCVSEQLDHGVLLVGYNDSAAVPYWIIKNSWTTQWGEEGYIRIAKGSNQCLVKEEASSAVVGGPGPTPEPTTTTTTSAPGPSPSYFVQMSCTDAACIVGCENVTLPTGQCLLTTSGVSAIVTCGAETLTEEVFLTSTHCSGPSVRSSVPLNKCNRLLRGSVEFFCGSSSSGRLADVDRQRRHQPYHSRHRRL
Method in brief: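 Fluorogenic assay at 25 °C following AMC release (ex 360/em 460 nm), with typically 0.2 nM cruzain and 10% DMSO, at pH 7.5 or 5.5 buffer with 5 mM DTT.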

[6] = 10% DMSO, read-out: Ki* Human Cathepsin L
[7] = 10% DMSO, read-out: Ki* Human Cathepsin B
[8] = Ki* Cruzain, obtained >10 minutes following initiation of reaction by addition of enzyme, pH 7.5
[9] = apparent initial inhibition constant, 25° C., pH 7.5, read-out: Ki
[10] = apparent tight-binding inhibition constant, 25° C., pH 7.5, read-out: Ki*
[11] = conversion of EI* back to EI, from kobs replot or recovery after preincubation and dilution
[12] = obtained >10 minutes following initiation of reaction by addition of enzyme, pH 7.5, read-out: Ki* Cruzain

Structure (SMILES) | apparent rate of GSH addition relative to K11777 [1] | Rate of Thiolation, k [1] | Ki [2, 6] | Ki [3, 7] | Ki [5, 8] | Ki [5, 9] | Ki [5, 10] | k4 [5, 11] | Ki [5, 12] | Ki ([2]; read-out: Ki* hCatL) | Ki ([3]; read-out: Ki* hCatB) | ratio of Ki* of SMAI to Ki* of its free aldehyde [5] | other results
C[n+]1ccccc1/C=C/[C@H](Cc1ccccc1)NC(=O)[C@H](Cc1ccccc1)NC(=O)OCc1ccccc1.[I-] [Compound 12, 2-((S,E)-3-((S)-2-(((Benzyloxy)carbonyl)amino)-3-phenylpropanamido)-4-phenylbut-1-en-1-yl)-1-methylpyridin-1-ium Iodide] | 8 fold | 0.617 ± 0.033 M⁻¹ s⁻¹ | 700 ± 40 nM | 19000 ± 4000 nM | 120 to 400 nM | 3800 ± 400 nM | 280 ± 80 nM | – | – | – | – | – | CC50 ([4]; human, 48 h): > 100000 nM; Ki ([5]; Ki*, apparent tight-binding inhibition constant, 25° C., pH 7.5): 120 nM
O=C(N[C@@H](Cc1ccccc1)C(=O)N[C@H](/C=C/c1ccccn1)Cc1ccccc1)OCc1ccccc1 [Compound 11, Benzyl ((S)-1-Oxo-3-phenyl-1-(((S,E)-1-phenyl-4-(pyridin-2-yl)-but-3-en-2-yl)amino)propan-2-yl)carbamate] | – | Negligible | 4300 ± 500 nM | 28000 ± 4000 nM | 120 to 400 nM | 5500 ± 400 nM | 310 nM | 0.0012 ± 0.0002 s⁻¹ | – | – | – | – | CC50 ([4]; human dermal fibroblasts, read-out: Human Cell Cytotoxicity CC50): > 100000 nM
C[n+]1ccccc1/C=C/[C@H](CCc1ccccc1)NC(=O)[C@H](Cc1ccccc1)NC(=O)OCc1ccccc1 [Compound 15, 2-((S,E)-3-((S)-2-(((Benzyloxy)carbonyl)amino)-3-phenylpropanamido)-5-phenylpent-1-en-1-yl)-1-methylpyridin-1-ium] | 8 fold | 0.9 ± 0.067 M⁻¹ s⁻¹ | 880 ± 60 nM | 37000 ± 6000 nM | – | 760 ± 40 nM | 126 nM | ≈ 0 s^−1 | 120 to 400 nM | – | – | – | CC50 [4]: > 100000 nM; Ki ([5]; calculated from global fitting to eq 6, read-out: Ki*): 600 ± 200 nM; k3 ([5]; fitting to eq 4): 0.004 ± 0.001 s⁻¹; k3 ([5]; global fitting to eq 6): 0.0012 ± 0.0004 s⁻¹; k4 ([5]; global fitting to eq 6): 0.00019 ± 0.00005 s⁻¹; Ki ([5]; global fitting to eq 6, read-out: Ki): 4300 ± 100 nM; Ki lower than the values with the three human cathepsins ([5]; pH 5.5): over 10 fold; Ki ([5]; pH 5.5, 25° C., 10% DMSO, read-out: Ki* Cruzain): 88 ± 2 nM; Ki ([5]; pH 5.5, read-out: Ki* Cruzain): 88 nM; Ki ([5]; replot of kobs vs inhibitor, fitting to eq 4, read-out: Ki): 2000 ± 900 nM
CN1CCN(C(=O)NC(Cc2ccccc2)C(=O)NC2Cc3ccccc3OC2O)CC1 (stereo not shown) [Compound 36] | – | – | – | – | – | – | – | (1.8±0.7)×10^−4 s^−1 | 47 nM | 20 ± 0.9 nM | 1270 ± 70 nM | 94 | residence time τ ([5]; preincubation, dilution, recovery of cruzain activity): 26 min
O=C(N[C@@H](Cc1ccccc1)C(=O)N[C@H]1Cc2ccccc2OC1O)OCc1ccccc1 (stereo partly shown) [Compound 30] | – | – | – | – | – | – | – | – | 49 nM | 28 ± 0.9 nM | 4500 ± 100 nM | 110 | selectivity for cruzain vs human cathepsin L and S [2]: more than 10 fold
